melting point	SMILES
83 to 84 °C (dec.)	CN(C)CC#C[C@H]1CC[C@H](N(C)c2ncc(Br)cn2)CC1 [Example 2, trans-(5-Bromo-pyrimidin-2-yl)-[4-(3-dimethylamino-prop-1-ynyl)-cyclohexyl]-methyl-amine]
108.3 to 109.5 °C	CN(C)C[C@H]1CC[C@H](CCNc2ncc(Br)cn2)CC1 [Example 12, trans-(5-Bromo-pyrimidin-2-yl)-[2-(4-dimethylaminomethyl-cyclohexyl)-ethyl]-amine]
71 to 72 °C	CN(C)CC#C[C@H]1CC[C@H](CN(C)c2ncc(Br)cn2)CC1 [Example 16, trans-(5-Bromo-pyrimidin-2-yl)-[4-(3-dimethylamino-prop-1-ynyl)-cyclohexylmethyl]-methyl-amine]
49 to 50 °C	CCCc1cnc(N(C)C[C@H]2CC[C@H](C#CCN(C)C)CC2)nc1 [Example 23.1, trans-[4-(3-Dimethylamino-prop-1-ynyl)-cyclohexylmethyl]-methyl-(5-propyl-pyrimidin-2-yl)-amine]

From patent US7012077B2, “Substituted cyclohexane derivatives” (Hoffmann-La Roche Inc., priority 2001, dated 2006)
